{"source": "patent US20160024204A1", "about": "“METHODS FOR PRODUCING ANTIBODIES” (BRISTOL-MYERS SQUIBB COMPANY, priority 2013, published 2016)", "tested_on": "P. pastoris", "test": "Effects of hydroxyurea on cell growth and antibody productivity in P. pastoris fermentation (Run 01MAY11)", "details": "2.6-2.8 g/L hydroxyurea; for WB Titer (anti-IL-6 antibody): age 90 h, lots T5, T6 and T10", "data": [{"smiles": "NC(=O)NO", "note": "[Hydroxyurea]", "values": [{"measurement": "WCW reached and maintained by hydroxyurea treatment lots (control lots ~400 g/Kg)", "setting": "after peak cell density at 30-40 hours, FIG. 8", "value": "~450", "unit": "g/kg"}, {"measurement": "WB Titer (anti-IL-6 antibody)", "value": "75.0 ± 2.7", "unit": "Normalized"}, {"measurement": "WB Titer (anti-IL-6 antibody)", "setting": "listed as hydroxyurea", "value": 75, "unit": "Normalized"}]}]}
